The values below come from patent publication US11173146B2, “Selective activators of the intermediate conductance CA2+activated K+ channel KCa3.1 and their methods of use” (The Regents of the University of California, priority 2014, dated 2021).

One data set concerns the target T1, hNaV1.7 (Homo sapiens, UniProt Q15858).
T1 construct: host or cells: CHO (division arrested)
As to the kind of experiment: NaV1.7 current inhibition (CHO cells). The class given is cell-based.

The target of the next data set is T2, KV11.1 (hERG) (Homo sapiens, UniProt Q12809).
T2 construct: host or cells: HEK-293
The experiment in a line: KV11.1 (hERG) current inhibition (HEK-293). The class given is cell-based. The text has this: (§1) Cells, Cell lines and Clones. HEK-293 cells stably expressing hKCa2.1, rKCa2.2 and hKCa3.1 were obtained from Khaled Houamed (University of Chicago, Ill.) in 2002 and have been maintained in the Wulff laboratory at the University of California since then. The cloning of hKCa2.3 (19 CAG repeats) and hKCa3.1 has been previously described (Wulff et al., 2000). The hKCa2.3 clone was later stably expressed in COS-7 cells at Aurora Biosciences Corp., San Diego, Calif. […]
(§2) Electrophysiology. […] For manual experiments COS-7, HEK-293 or L929 cells were trypsinized, plated onto poly-L-lysine coated coverslips and typically recorded from between 20 min and 4 h after plating. […] Free Ca^2+ concentrations were calculated with MaxChelator assuming a temperature of 25° C., a pH of 7.2 and an ionic strength of 160 mM. To reduce contaminating currents from native chloride channels in COS-7 cells, KCa2.3 currents were recorded with an internal pipette solution containing (in mM): 145 K^+ aspartate, 2 MgCl2, 10 HEPES, 10 EGTA and 7.4 CaCl2 (500 nM free Ca^2+), pH 7.2, 290-310 mOsm. […] KV2.1, Kv1.3, and KV3.1 currents were recorded in normal Ringer solution with a Ca^2+-free KF-based pipette solution as previously described (Schmitz et al., 2005). HERG (KV11.1) currents were recorded with a 2-step pulse from −80 mV first to 20 mV for 1 sec and then to −50 mV for 1 sec. […]
(hERG is a cardiac potassium channel; its block is linked to QT prolongation.)

The nature of data set [1]: Pharmacokinetics in mice (UPLC/MS). The class given is in vivo, mouse. More on the design: distribution from blood into tissue / oral availability: dose or concentration left out as unconfirmed. The following applies: for half-life: iv, 10 mg/kg i.v. From the text: Pharmacokinetics. Twelve week-old male C57BI/6Jmice were purchased from Charles River Laboratories (Wilmington, Mass.) and housed in microisolator cages with rodent chow and autoclaved water ad libitum. All experiments were in accordance with National Institutes of Health guidelines and approved by the University of California, Davis, Institutional Animal Care and Use Committee. […] At various time points after the injection blood was collected into EDTA blood sample collection tubes either from the saphenous vein or by cardiac puncture under deep isoflurane anesthesia. Following the cardiac puncture mice were sacrificed by cutting the heart and then the brain was removed. Individual mice were typically used for 3 times points (2 blood collections from the saphenous vein plus the terminal blood collection). Plasma was separated by centrifugation and plasma and brain samples were stored at −80 °C pending analysis. Brain samples were homogenized in 1 ml of H2O with a Brinkman Kinematica PT 1600E homogenizer and the protein precipitated with 1 ml of acetonitrile. The samples were then centrifuged at 3000 rpm and supernatants concentrated to 1 ml. Plasma and homogenized brain samples were purified using C18 solid phase extraction cartridges (ThermoFisher Scientific, Waltham, Mass., USA) preconditioned with acetonitrile followed by 1 ml of water. The loaded column was washed with 2 ml of water. […] Eluted fractions were dried under nitrogen and reconstituted in acetonitrile. LC/MS analysis was performed with a Waters Acquity UPLC (Waters, New York, N.Y.) equipped with a Acquity UPLC BEH 1.7 μm RP-18 column (Waters, New York, N.Y.) interfaced to a TSQ Quantum Access Max mass spectrometer (MS) (ThermoFisher Scientific, Waltham, Mass., USA). The isocratic mobile phase consisted of 80% acetonitrile and 20% water, both containing 0.1% formic acid with a flow rate of 0.25 ml/min.

For data set [2], the system named is L-NAME-treated moderately hypertensive mice. The experiment in a line: Telemetry in L-NAME-treated hypertensive mice. The class given is in vivo, mouse. How it is done: Telemetry. […] Maximal injection volume was ≤600 μl. […] Data were analyzed using the DSI software.
In contrast, SKA-121 at 100 mg/kg produced a significant drop in MAP by ˜25 mm Hg over 6 h.

For the next data set, the target named is T3, hKCa1.1 (Homo sapiens, UniProt Q12791).
T3 construct: host or cells: HEK-293
The experiment in a line: KCa1.1 current modulation (QPatch). The format is cell-based. A general note: In patch-clamp work, channel activity is measured electrically.

The target in another data set is T4, mKV1.3 (Mus musculus, UniProt P16390).
T4 construct: expressed in transfected cells; host or cells: L929
The experiment in a line: KV1.3 current inhibition (L929 cells). The class given is cell-based.
Excerpt: as §1, §2

“Also recorded” adds a separate entry of the source. Read-outs that look alike come from different tables or passages of the source.

T1 sequence (Q15858 whole entry): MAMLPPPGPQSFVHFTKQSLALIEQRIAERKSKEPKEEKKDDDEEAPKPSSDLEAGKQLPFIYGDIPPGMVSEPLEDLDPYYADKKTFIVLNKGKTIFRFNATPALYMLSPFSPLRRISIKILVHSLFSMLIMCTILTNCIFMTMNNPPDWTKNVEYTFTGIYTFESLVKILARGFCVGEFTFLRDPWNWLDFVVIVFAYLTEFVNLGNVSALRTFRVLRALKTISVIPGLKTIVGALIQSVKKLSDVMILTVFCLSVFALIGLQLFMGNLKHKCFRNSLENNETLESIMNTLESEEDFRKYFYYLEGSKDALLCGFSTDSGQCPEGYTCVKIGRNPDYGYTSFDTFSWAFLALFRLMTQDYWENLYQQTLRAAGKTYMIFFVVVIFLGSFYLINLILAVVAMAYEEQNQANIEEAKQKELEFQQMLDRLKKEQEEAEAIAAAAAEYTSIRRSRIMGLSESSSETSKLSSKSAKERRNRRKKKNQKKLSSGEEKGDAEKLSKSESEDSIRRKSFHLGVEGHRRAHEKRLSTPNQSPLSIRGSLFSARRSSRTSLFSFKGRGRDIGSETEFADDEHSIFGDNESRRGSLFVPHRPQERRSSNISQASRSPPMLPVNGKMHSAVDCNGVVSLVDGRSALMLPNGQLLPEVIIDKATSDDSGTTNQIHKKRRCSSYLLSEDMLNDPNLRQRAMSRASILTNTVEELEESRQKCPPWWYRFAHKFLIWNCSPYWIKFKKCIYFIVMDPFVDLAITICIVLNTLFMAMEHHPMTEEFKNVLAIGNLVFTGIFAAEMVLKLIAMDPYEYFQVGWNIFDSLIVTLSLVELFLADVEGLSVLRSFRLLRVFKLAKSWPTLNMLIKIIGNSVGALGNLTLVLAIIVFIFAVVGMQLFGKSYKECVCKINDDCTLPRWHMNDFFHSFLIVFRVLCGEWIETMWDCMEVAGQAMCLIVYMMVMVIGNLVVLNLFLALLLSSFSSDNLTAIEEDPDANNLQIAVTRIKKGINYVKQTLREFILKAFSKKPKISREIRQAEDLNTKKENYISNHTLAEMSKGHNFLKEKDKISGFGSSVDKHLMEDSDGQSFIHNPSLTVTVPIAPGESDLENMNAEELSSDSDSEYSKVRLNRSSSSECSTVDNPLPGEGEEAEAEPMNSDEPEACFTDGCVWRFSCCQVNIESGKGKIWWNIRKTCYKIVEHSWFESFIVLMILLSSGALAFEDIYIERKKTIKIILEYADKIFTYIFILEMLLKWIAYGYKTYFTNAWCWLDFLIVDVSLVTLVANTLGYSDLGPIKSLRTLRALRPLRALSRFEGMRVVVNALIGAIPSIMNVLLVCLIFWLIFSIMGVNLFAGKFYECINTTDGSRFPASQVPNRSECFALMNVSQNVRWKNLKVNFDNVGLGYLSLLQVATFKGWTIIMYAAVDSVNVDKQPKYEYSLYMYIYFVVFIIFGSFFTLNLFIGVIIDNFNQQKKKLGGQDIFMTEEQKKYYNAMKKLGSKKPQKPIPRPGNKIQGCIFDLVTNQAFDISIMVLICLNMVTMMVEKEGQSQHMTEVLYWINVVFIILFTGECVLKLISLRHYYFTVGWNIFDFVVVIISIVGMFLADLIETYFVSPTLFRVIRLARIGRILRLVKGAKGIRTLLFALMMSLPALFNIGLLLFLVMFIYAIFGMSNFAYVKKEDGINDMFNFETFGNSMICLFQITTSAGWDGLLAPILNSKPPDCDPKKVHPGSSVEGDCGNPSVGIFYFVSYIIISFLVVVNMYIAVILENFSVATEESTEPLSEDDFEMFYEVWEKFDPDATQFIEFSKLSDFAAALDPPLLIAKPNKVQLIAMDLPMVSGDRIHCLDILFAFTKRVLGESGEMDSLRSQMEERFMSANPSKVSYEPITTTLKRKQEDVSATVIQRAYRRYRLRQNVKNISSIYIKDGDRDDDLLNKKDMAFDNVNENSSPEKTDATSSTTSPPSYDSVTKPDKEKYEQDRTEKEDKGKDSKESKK
T3 sequence (Q12791 whole entry): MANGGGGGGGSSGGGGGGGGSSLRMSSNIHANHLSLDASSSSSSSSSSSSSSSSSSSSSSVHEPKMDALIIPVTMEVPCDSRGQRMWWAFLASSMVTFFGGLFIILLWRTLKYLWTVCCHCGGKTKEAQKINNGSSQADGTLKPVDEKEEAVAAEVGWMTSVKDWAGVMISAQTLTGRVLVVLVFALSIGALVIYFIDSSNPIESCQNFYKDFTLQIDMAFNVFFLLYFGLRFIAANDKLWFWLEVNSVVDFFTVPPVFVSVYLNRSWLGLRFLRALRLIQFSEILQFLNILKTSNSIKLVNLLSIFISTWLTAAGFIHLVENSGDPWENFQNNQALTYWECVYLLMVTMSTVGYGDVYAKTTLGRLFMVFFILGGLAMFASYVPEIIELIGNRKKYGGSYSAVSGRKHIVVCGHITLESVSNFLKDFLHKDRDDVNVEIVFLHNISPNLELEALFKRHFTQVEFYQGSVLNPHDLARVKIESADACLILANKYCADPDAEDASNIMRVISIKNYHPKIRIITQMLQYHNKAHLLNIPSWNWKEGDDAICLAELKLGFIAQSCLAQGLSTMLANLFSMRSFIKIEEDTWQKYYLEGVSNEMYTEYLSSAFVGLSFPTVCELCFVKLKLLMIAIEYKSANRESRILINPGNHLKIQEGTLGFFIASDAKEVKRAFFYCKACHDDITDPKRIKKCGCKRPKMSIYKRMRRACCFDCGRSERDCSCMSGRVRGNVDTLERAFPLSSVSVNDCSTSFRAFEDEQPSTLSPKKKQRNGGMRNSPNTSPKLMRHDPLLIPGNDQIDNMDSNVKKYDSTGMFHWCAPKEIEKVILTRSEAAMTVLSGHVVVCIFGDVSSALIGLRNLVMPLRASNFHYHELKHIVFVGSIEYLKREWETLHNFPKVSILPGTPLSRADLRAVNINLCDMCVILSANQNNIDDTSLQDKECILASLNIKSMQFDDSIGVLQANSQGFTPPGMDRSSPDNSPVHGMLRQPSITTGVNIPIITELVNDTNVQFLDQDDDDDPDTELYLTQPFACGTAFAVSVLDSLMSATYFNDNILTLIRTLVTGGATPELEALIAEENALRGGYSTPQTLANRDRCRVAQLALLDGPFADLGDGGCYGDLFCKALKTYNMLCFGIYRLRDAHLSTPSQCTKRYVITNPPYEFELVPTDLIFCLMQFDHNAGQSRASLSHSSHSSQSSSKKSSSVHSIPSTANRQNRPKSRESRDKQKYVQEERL
T4 sequence (P16390 whole entry): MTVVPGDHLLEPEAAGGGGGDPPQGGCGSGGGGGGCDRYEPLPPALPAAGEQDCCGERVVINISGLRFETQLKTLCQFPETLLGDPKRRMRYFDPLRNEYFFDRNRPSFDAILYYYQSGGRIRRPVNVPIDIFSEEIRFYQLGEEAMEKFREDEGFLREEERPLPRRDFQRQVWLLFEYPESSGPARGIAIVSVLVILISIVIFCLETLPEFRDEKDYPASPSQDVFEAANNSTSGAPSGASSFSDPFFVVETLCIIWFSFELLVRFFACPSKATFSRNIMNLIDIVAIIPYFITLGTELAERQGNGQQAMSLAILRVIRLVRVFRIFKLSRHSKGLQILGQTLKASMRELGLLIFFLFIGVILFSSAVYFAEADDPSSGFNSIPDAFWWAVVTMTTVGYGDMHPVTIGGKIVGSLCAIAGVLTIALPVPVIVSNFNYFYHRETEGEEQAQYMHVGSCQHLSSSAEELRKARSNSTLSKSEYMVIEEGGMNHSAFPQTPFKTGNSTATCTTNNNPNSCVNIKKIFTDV
T2 sequence (Q12809 whole entry): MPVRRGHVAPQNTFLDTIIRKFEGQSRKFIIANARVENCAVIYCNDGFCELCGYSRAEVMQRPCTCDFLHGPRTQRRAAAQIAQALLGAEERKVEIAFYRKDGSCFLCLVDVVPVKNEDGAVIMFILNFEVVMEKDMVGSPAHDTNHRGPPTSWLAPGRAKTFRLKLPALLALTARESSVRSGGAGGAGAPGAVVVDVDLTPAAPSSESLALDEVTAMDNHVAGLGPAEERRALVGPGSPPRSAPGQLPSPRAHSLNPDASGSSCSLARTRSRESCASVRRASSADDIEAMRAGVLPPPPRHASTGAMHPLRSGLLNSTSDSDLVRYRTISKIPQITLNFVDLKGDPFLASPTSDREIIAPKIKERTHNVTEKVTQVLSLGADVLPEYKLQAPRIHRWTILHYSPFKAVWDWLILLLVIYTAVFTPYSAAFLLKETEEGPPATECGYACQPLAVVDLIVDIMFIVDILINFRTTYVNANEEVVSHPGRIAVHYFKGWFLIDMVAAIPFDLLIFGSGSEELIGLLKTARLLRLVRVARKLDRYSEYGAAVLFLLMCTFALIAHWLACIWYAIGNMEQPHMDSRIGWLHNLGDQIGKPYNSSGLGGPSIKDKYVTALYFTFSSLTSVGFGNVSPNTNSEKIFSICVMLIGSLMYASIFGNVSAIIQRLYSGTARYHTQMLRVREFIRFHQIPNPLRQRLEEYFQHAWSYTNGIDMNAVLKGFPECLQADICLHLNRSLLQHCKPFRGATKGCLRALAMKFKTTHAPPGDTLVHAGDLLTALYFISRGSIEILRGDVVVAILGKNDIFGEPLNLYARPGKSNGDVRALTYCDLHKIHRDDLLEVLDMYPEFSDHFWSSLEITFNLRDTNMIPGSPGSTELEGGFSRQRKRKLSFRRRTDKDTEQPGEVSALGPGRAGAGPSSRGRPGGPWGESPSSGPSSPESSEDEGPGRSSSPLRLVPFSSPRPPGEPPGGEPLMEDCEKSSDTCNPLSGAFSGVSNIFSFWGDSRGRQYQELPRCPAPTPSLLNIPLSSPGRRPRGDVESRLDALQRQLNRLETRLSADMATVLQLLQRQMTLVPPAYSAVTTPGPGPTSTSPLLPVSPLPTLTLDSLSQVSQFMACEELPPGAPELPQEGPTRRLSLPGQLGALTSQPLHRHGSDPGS

The molecule `Cc1cc2sc(N)nc2c2ccccc12` [SKA-111, 5-methylnaphtho[1,2-d]thiazol-2-amine] returned an inhibition at 25 µM against hNaV1.7 (at 25 μM) of 27.5 ± 0.9%. Moreover, the “KV11.1 (hERG) % current inhibition” value at KV11.1 (hERG) (at 25 μM) is recorded as 10.1 ± 7.7%. The “distribution from blood into tissue” value in data set [1] ([…] mg/kg i.v., mice) was roughly 2 min. Further, the “total brain concentrations probably achieved” value in data set [1] (i.p. 100 mg/kg, for hours) lay in the range of 10 to 30 µM. Further, the half-life in data set [1] (male, C57Bl/6J, mouse, plasma, 10 mg/kg, mice, read-out: elimination half-life (converted)) is 4.7 ± 0.6 h. Besides, in data set [2] (60 mg/kg i.p.), the “HR” value is listed as “remained virtually stable; also recorded: only a minor drop” and the “MAP” value is listed as “reduced blood pressure; also recorded: only a minor drop”. Further, the “KCa1.1 % of current” value at hKCa1.1 (at 25 μM) is listed as 120% of current at 25 μM (3). This molecule returned an inhibition at 25 µM against mKV1.3 (at 25 μM) of 28.5 ± 2.3%.
`Cc1cc2nc(N)oc2c2ccccc12` [SKA-121, 5-Methylnaphtho[2,1-d]oxazol-2-amine] came in with an inhibition at 50 µM on hNaV1.7 (at 50 μM) of 28.5 ± 1.8%. On KV11.1 (hERG) (at 50 μM), the “KV11.1 (hERG) % current inhibition” value was determined as 16.7 ± 9.7%. In data set [1] ([…] mg/kg oral vs i.v., mice), the oral availability entry was “roughly 25%”. In addition, in data set [1] (male, C57Bl/6J, mouse, plasma, 10 mg/kg, […] mg/kg oral, mice, read-out: plasma level at 1 h after oral administration), the concentration at 1 h was found to be 1100 ± 100 nM. In addition, in data set [1] (male, C57Bl/6J, mouse, plasma, 10 mg/kg, […] mg/kg oral, mice, read-out: plasma level at 8 h after oral administration), the concentration at 8 h came to 27 ± 5 nM. In data set [1] (male, C57Bl/6J, mouse, plasma, intravenous, 10 mg/kg, […] mg/kg i.v., mice, read-out: total plasma concentration at 5 min), the concentration at 5 min was determined as 21300 ± 2400 nM. In addition, the concentration at 1 h in data set [1] (male, C57Bl/6J, mouse, plasma, intravenous, 10 mg/kg, […] mg/kg i.v., mice, read-out: total plasma concentration at 1 h) is 483 ± 231 nM. The concentration at 4 h in data set [1] (male, C57Bl/6J, mouse, plasma, intravenous, 10 mg/kg, […] mg/kg i.v., mice, read-out: total plasma concentration at 4 h) is 53 ± 44 nM. In addition, in data set [1] (male, C57Bl/6J, mouse, plasma, 10 mg/kg, mice, read-out: half-life), the half-life was roughly 0.333 h. Further, the Kp in data set [1] (male, C57Bl/6J, mouse, mice, averaged paired brain and plasma samples, read-out: brain/plasma ratio) was determined as 3.3 ± 2.9. Also, in data set [2] (100 mg/kg i.p.), the “HR” value is “remained virtually stable; also recorded: minor decrease”, the “drop in MAP” value is listed as roughly 25 mm Hg and the “duration of MAP drop” value came out at 6 h. The “blood pressure” value in data set [2] (100 mg/kg i.p., FIG. 6B) is on record as “reduced blood pressure”. Further, the “KCa1.1 % of current” value at hKCa1.1 (at 50 μM) is on record as 115% of current at 50 μM (3). Besides, on mKV1.3 (at 50 μM), the inhibition at 50 µM came to 27.5 ± 7.2%.

Usually inhibition stands for the relative decrease from the control value, in per cent. As a reminder, the half-life is the time in which the quantity being followed falls by half.
